From PMC4184702 (Pharmacology Research & Perspectives, 2014)
pKi: −log10 of the molar value.

Experiments:
[1] = Metabolic stability, cryopreserved hepatocytes, mouse; type: in vitro ADME; conditions: CD-1, 1.0E-06 M, 2 h
[2] = test system: five different cytochrome P450 (CYP450) enzymes (2D6, 3A, 1A, 2C9, and 2C19); assay: CYP450 inhibition panel (summary); type: in vitro ADME, human; conditions: in words
[3] = target: T1, V1A (Homo sapiens, UniProt P37288); assay: PDSP primary binding, V1A; conditions: n = 4, read-out: Inhibition (primary binding competition efficacy), V1A
T1 construct: purchased NIMH Psychoactive Drug Screening Program (PDSP)
T1 sequence (P37288 whole entry): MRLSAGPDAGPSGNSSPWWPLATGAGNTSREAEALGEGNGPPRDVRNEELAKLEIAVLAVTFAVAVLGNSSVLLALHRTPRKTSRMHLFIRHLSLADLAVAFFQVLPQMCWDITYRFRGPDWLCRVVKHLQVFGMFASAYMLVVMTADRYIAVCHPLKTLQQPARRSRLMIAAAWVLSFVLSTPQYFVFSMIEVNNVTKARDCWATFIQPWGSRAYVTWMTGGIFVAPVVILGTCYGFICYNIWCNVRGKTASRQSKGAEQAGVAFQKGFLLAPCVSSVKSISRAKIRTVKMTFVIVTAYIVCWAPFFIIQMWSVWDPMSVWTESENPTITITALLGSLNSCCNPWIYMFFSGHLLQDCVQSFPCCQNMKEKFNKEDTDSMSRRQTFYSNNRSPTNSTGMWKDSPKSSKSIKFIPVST
Procedure: (§1) For experimental details, please refer to the Psychoactive Drug Screening Program (PDSP) web site http://pdsp.med.unc.edu/.
(§2) ^a The default concentration for primary binding experiments is 10 µM (n = 4). ^b Negative inhibition represents a stimulation of binding. ^c BZPR: Benzodiazepine Receptors (rat brain site). ^d DOR: Delta Opioid Receptor; KOR: Kappa Opioid Receptor; MOR: Mu Opioid Receptor. ^e DAT: Dopamine Transporter; NET: Norepinephrine Transporter; SERT: Serotonin Transporter. ^f NMDA: N-methyl-D-aspartate receptor.

[4] = test system: GABAA; assay: PDSP primary binding, GABAA; conditions: 10 µM, n = 4
Procedure: as §1, §2

[5] = target: T2, 5-HT6 (Homo sapiens, UniProt P50406); assay: PDSP primary binding, 5-HT6; conditions: n = 4, read-out: Inhibition (primary binding competition efficacy), 5-HT6
T2 construct: purchased NIMH Psychoactive Drug Screening Program (PDSP)
T2 sequence (P50406 whole entry): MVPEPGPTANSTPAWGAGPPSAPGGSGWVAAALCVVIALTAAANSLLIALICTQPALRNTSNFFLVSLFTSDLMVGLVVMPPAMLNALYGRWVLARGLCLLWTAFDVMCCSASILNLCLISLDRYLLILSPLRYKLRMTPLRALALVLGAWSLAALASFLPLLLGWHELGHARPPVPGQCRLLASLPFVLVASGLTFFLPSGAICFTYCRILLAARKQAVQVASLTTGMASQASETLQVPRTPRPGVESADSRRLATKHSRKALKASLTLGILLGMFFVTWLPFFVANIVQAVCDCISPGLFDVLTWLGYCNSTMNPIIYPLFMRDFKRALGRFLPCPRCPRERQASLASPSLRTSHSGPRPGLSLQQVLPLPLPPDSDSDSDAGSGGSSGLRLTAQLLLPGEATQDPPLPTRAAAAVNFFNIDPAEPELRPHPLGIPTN
Procedure: as §1, §2

[6] = target: T3, 5-HT3 (Homo sapiens, UniProt P46098); assay: PDSP primary binding, 5-HT3; conditions: n = 4, read-out: Inhibition (primary binding competition efficacy), 5-HT3
T3 construct: purchased NIMH Psychoactive Drug Screening Program (PDSP)
T3 sequence (P46098 24-478): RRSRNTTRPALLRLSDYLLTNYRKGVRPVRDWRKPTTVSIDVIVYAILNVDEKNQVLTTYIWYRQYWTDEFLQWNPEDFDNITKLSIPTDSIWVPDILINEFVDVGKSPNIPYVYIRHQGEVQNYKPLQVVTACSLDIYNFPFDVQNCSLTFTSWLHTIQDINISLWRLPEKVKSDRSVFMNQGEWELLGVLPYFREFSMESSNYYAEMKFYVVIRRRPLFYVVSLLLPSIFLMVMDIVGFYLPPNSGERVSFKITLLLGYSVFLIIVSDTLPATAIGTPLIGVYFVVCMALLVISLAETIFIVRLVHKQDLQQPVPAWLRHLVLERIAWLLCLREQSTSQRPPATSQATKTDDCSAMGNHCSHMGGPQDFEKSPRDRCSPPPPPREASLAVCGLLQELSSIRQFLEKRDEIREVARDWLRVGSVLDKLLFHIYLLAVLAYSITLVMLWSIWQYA
Procedure: as §1, §2

[7] = test system: NMDA: N-methyl-D-aspartate receptor; assay: PDSP primary binding, NMDA; conditions: 10 µM, n = 4
Procedure: as §1, §2

[8] = target: α7 nAChR; conditions: ref Yu et al. [2012], cited from earlier work
[9] = target: T4, CYP2C19 (Homo sapiens, UniProt P33261); assay: CYP2C19 inhibition, HLM, omeprazole substrate; type: in vitro ADME; conditions: 1.0E-05 M
T4 construct: from tissue; host or cells: human liver microsomes (HLM)
T4 sequence (P33261 whole entry): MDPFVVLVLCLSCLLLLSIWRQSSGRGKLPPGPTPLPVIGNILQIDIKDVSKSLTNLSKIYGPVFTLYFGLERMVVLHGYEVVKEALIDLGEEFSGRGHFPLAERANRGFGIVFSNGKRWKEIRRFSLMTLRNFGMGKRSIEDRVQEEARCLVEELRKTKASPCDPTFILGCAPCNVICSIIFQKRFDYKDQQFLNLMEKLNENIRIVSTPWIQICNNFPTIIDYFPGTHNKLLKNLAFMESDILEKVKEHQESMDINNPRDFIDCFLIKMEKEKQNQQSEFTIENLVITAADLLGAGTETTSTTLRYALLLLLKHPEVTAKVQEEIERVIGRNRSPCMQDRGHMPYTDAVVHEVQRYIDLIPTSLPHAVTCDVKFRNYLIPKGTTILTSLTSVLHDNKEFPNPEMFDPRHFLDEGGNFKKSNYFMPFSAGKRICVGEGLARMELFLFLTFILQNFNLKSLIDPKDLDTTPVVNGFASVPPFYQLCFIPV
Text: (§3) Supplement prp20002-e00026-sd1.doc, table 3: Table 3.

[10] = target: α7* nAChR; conditions: ref Yu et al. [2012], cited from earlier work
[11] = target: T5, CYP1A (Homo sapiens, UniProt P05177); assay: CYP1A inhibition, HLM, phenacetin substrate; type: in vitro ADME; conditions: 1.0E-05 M
T5 construct: from tissue; host or cells: human liver microsomes (HLM)
T5 sequence (P05177 2-516 limits assumed): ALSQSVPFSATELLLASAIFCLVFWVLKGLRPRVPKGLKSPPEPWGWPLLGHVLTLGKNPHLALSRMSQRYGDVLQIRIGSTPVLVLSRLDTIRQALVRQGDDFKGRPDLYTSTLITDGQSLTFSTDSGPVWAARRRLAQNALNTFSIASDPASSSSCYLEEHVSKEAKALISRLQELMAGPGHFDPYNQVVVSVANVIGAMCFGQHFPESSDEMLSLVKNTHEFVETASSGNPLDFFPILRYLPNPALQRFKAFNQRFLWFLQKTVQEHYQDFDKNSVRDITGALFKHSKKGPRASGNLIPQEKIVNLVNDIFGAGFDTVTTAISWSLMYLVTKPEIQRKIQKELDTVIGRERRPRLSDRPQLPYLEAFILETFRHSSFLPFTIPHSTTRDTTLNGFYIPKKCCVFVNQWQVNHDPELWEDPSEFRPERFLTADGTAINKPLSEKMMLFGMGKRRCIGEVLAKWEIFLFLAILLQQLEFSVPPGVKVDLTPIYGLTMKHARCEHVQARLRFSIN
Text: as §3

[12] = Bacterial cytotoxicity, strain TA1535; type: cell-based; conditions: Salmonella typhimurium, bacterial tester strain TA1535 without S9, read-out: Cytotoxicity (% of Control Values)
Text: (§4) Supplement prp20002-e00026-sd1.doc, table 4: Table 4.

[13] = target: T6, DAT: Dopamine Transporter (Homo sapiens, UniProt Q01959); assay: PDSP primary binding, DAT; conditions: n = 4, read-out: Inhibition (primary binding competition efficacy), DAT
T6 construct: purchased NIMH Psychoactive Drug Screening Program (PDSP)
Procedure: as §1, §2

[14] = target: T7, α2C adrenergic receptor (Homo sapiens, UniProt P18825); assay: PDSP primary binding, α2C; conditions: n = 4, read-out: Inhibition (primary binding competition efficacy), α2C
T7 construct: purchased NIMH Psychoactive Drug Screening Program (PDSP)
T7 sequence (P18825 whole entry): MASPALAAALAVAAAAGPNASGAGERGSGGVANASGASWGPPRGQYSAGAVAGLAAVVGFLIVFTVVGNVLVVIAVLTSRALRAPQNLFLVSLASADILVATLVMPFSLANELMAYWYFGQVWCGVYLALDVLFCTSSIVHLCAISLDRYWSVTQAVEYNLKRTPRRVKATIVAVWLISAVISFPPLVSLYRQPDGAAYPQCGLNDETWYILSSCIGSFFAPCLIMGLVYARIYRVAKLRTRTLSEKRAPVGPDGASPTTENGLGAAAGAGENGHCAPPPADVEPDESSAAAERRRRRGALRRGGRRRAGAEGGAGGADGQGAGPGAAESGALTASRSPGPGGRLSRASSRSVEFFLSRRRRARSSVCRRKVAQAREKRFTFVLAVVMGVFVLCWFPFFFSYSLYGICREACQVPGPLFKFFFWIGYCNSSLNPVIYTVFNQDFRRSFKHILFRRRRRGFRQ
Procedure: as §1, §2

[15] = target: T8, 5-HT2B (Homo sapiens, UniProt P41595); assay: PDSP primary binding, 5-HT2B; conditions: n = 4, read-out: Inhibition (primary binding competition efficacy), 5-HT2B
T8 construct: purchased NIMH Psychoactive Drug Screening Program (PDSP)
Procedure: as §1, §2

[16] = target: T9, 5-HT1E (Homo sapiens, UniProt P28566); assay: PDSP primary binding, 5-HT1E; conditions: n = 4, read-out: Inhibition (primary binding competition efficacy), 5-HT1E
T9 construct: purchased NIMH Psychoactive Drug Screening Program (PDSP)
T9 sequence (P28566 whole entry): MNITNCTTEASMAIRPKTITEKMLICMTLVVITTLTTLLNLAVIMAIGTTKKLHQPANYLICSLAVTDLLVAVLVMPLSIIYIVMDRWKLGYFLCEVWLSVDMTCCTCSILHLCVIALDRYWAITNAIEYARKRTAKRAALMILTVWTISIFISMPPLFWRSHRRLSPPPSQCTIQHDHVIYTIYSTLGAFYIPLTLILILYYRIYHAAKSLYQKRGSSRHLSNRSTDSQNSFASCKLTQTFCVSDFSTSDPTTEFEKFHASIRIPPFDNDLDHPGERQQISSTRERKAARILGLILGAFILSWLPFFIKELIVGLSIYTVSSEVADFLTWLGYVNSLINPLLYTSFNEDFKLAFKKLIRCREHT
Procedure: as §1, §2

[17] = target: T10, 5-HT5A (Homo sapiens, UniProt P47898); assay: PDSP primary binding, 5-HT5A; conditions: n = 4, read-out: Inhibition (primary binding competition efficacy), 5-HT5A
T10 construct: purchased NIMH Psychoactive Drug Screening Program (PDSP)
T10 sequence (P47898 whole entry): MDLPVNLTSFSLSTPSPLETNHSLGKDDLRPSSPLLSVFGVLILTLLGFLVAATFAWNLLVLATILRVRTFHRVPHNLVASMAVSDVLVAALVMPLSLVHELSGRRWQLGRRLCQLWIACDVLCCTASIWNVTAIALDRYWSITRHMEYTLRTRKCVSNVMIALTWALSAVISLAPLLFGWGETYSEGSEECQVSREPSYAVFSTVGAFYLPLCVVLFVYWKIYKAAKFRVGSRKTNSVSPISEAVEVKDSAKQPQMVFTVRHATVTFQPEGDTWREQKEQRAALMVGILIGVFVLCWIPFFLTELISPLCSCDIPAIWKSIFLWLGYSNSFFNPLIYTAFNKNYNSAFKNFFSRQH
Procedure: as §1, §2

[18] = test system: GABAB; assay: PDSP primary binding, GABAB; conditions: 10 µM, n = 4
Procedure: as §1, §2

[19] = target: T11, β1 adrenergic receptor (Homo sapiens, UniProt P08588); assay: PDSP primary binding, β1; conditions: n = 4, read-out: Inhibition (primary binding competition efficacy), β1
T11 construct: purchased NIMH Psychoactive Drug Screening Program (PDSP)
T11 sequence (P08588 whole entry): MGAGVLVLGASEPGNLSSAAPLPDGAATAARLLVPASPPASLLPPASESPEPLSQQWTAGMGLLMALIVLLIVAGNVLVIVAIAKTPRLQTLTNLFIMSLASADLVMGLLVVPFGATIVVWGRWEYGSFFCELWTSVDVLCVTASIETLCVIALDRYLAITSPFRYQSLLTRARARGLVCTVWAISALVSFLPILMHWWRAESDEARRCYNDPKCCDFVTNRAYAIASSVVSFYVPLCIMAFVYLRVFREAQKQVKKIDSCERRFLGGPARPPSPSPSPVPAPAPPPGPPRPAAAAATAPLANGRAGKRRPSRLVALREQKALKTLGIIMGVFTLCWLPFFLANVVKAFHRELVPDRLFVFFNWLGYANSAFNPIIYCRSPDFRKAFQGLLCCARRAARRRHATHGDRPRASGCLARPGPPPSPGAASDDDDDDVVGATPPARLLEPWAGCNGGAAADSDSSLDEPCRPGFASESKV
Procedure: as §1, §2

[20] = Metabolic stability, cryopreserved hepatocytes, human; type: in vitro ADME; conditions: 1.0E-06 M, 2 h
[21] = Bacterial cytotoxicity, strain TA98; type: cell-based; conditions: Salmonella typhimurium, bacterial tester strain TA98 without S9, read-out: Cytotoxicity (% of Control Values)
Text: as §4

[22] = target: T12, M3 muscarinic receptor (Homo sapiens, UniProt P20309); assay: PDSP primary binding, M3; conditions: n = 4, read-out: Inhibition (primary binding competition efficacy), M3
T12 construct: purchased NIMH Psychoactive Drug Screening Program (PDSP)
T12 sequence (P20309 whole entry): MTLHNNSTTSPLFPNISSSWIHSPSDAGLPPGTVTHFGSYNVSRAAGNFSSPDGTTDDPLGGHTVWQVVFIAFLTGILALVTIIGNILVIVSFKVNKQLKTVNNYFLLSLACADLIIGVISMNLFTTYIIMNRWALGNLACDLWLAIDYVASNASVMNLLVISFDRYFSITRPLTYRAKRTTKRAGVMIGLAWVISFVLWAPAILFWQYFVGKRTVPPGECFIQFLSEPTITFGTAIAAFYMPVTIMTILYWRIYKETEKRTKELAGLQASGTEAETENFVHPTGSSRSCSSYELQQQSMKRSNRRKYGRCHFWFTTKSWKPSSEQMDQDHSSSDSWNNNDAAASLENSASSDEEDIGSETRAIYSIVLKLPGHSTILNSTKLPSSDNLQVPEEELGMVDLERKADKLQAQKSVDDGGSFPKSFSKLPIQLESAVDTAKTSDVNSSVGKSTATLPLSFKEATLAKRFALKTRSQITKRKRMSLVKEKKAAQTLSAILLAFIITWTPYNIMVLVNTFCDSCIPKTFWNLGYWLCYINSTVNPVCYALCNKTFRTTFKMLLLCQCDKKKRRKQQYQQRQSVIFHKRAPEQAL
Procedure: as §1, §2

Compound: OCCc1cc(-c2cncc(OC[C@@H]3CCN3)c2)on1 [LF-3-88, 2-[5-[5-(2(S)-azetidinylmethoxyl)-3-pyridyl]-3-isoxazolyl]ethanol]
- Remaining (metabolic stability) [1]: 91%
- inhibition toward five CYP450 enzymes [2]: No significant inhibition
- inhibition at 10 µM [3]: 24.7%
- Inhibition (primary binding competition efficacy), GABAA [4]: -7.6%
- inhibition at 10 µM [5]: -1.9%
- inhibition at 10 µM [6]: -1%
- Inhibition (primary binding competition efficacy), NMDA [7]: -4.7%
- Ki α7 ([8]; class symbol): NA ^4 (NA: not active, defined as < 50% binding in the primary assay at 10 μmol/L)
- pKi ([8]; read-out: Ki α7-nAChRs): < 5.00
- CYP2C19 Inhibition [9]: 10%
- pKi ([10]; Figure 1): < 5.00
- Ki α7* ([10]; rat forebrain, class symbol): NA (NA: not active, defined as < 50% binding in the primary assay at 10 μmol/L)
- CYP1A Inhibition [11]: 13%
- viability at 0.0001 M ([12]; strain TA1535 – S9, 1.0E-04 M): 117%
- viability at 10 µM ([12]; strain TA1535 – S9, 1.0E-05 M): 97%
- viability at 1.25 µM ([12]; strain TA1535 – S9, 1.25E-06 M): 105%
- viability at 25 µM ([12]; strain TA1535 – S9, 2.5E-05 M): 104%
- viability at 2.5 µM ([12]; strain TA1535 – S9, 2.5E-06 M): 102%
- viability at 50 µM ([12]; strain TA1535 – S9, 5.0E-05 M): 109%
- viability at 5 µM ([12]; strain TA1535 – S9, 5.0E-06 M): 100%
- viability at 625 nM ([12]; strain TA1535 – S9, 6.25E-07 M): 99%
- inhibition at 10 µM [13]: 18.6%
- inhibition at 10 µM [14]: 17.2%
- inhibition at 10 µM [15]: 7.9%
- inhibition at 10 µM [16]: -3%
- inhibition at 10 µM [17]: 13.2%
- Inhibition (primary binding competition efficacy), GABAB [18]: 1.1%
- inhibition at 10 µM [19]: 1.7%
- Remaining (metabolic stability) [20]: 92%
- viability at 0.0001 M ([21]; strain TA98 – S9, 1.0E-04 M): 108%
- viability at 10 µM ([21]; strain TA98 – S9, 1.0E-05 M): 92%
- viability at 1.25 µM ([21]; strain TA98 – S9, 1.25E-06 M): 95%
- viability at 25 µM ([21]; strain TA98 – S9, 2.5E-05 M): 94%
- viability at 2.5 µM ([21]; strain TA98 – S9, 2.5E-06 M): 98%
- viability at 50 µM ([21]; strain TA98 – S9, 5.0E-05 M): 102%
- viability at 5 µM ([21]; strain TA98 – S9, 5.0E-06 M): 96%
- viability at 625 nM ([21]; strain TA98 – S9, 6.25E-07 M): 97%
- inhibition at 10 µM [22]: 0.9%
